Test results as given in the NIST ThermoML archive (doi:10.1021/je700754k).

What was measured:
[1] = xn = mol fraction of the nth substance listed; details: 101 kPa, Liquid
[2] = excess molar enthalpy (molar enthalpy of mixing); xn = mol fraction of the nth substance listed; details: 303.15 K, 101 kPa, Liquid, Calvet calorimetry

CCCCn1cc[n+](C)c1.COS(=O)(=O)[O-] [1-butyl-3-methylimidazolium methyl sulfate] + CCO
mass density [kg/m3], [1]
Details | 293.15 K | 303.15 K | 313.15 K | 323.15 K
x1 = 0.0459 | 854.75 | 846.48 | 838.14 | 829.69
x1 = 0.0987 | 913.25 | 905.23 | 897.17 | 889.06
x1 = 0.142 | 952 | 944.14 | 936.26 | 928.36
x1 = 0.1905 | 988.2 | 980.49 | 972.79 | 965.08
x1 = 0.2357 | 1016.76 | 1009.19 | 1001.63 | 994.07
x1 = 0.2733 | 1037.27 | 1029.8 | 1022.32 | 1014.88
x1 = 0.3516 | 1073.29 | 1065.97 | 1058.67 | 1051.41
x1 = 0.4381 | 1104.9 | 1097.71 | 1090.57 | 1083.48
x1 = 0.5335 | 1132.61 | 1125.56 | 1118.55 | 1111.6
x1 = 0.5712 | 1141.96 | 1134.95 | 1127.99 | 1121.09
x1 = 0.6742 | 1163.83 | 1156.95 | 1150.1 | 1143.31
x1 = 0.7665 | 1180.16 | 1173.37 | 1166.61 | 1159.9
x1 = 0.8482 | 1192.27 | 1185.55 | 1178.85 | 1172.21
x1 = 0.9248 | 1202.35 | 1195.72 | 1189.08 | 1182.49
x1 = 1 | 1211.17 | 1204.48 | 1197.92 | 1191.39

[2]
Details | excess molar enthalpy [kJ/mol]
x1 = 0.016 | 0.211
x1 = 0.0338 | 0.368
x1 = 0.1032 | 0.862
x1 = 0.1897 | 1.16
x1 = 0.2821 | 1.32
x1 = 0.3379 | 1.28
x1 = 0.5068 | 1.07
x1 = 0.5946 | 0.958
x1 = 0.7119 | 0.696
x1 = 0.7889 | 0.51
x1 = 0.9083 | 0.22

CCCCn1cc[n+](C)c1.COS(=O)(=O)[O-] [1-butyl-3-methylimidazolium methyl sulfate] + C[N+](=O)[O-]
mass density [kg/m3], [1]
Details | 293.15 K | 303.15 K | 313.15 K | 323.15 K
x1 = 0.0398 | 1152.79 | 1140.52 | 1128.19 | 1115.81
x1 = 0.1021 | 1167.13 | 1156.18 | 1145.2 | 1134.22
x1 = 0.1433 | 1174.03 | 1163.71 | 1153.39 | 1143.09
x1 = 0.1988 | 1181.04 | 1171.38 | 1161.73 | 1152.11
x1 = 0.2444 | 1185.56 | 1176.34 | 1167.13 | 1157.97
x1 = 0.2998 | 1189.98 | 1181.18 | 1172.41 | 1163.68
x1 = 0.3979 | 1195.81 | 1187.57 | 1179.37 | 1171.23
x1 = 0.4786 | 1199.41 | 1191.53 | 1183.69 | 1175.91
x1 = 0.5652 | 1202.31 | 1194.73 | 1187.19 | 1179.71
x1 = 0.7127 | 1206.24 | 1199.08 | 1191.95 | 1184.88
x1 = 0.8212 | 1208.19 | 1201.28 | 1194.38 | 1187.53
x1 = 0.8546 | 1208.81 | 1201.97 | 1195.14 | 1188.36
x1 = 1 | 1211.16 | 1204.45 | 1197.88 | 1191.35

[2]
Details | excess molar enthalpy [kJ/mol]
x1 = 0.0804 | -0.159
x1 = 0.1617 | -0.285
x1 = 0.2832 | -0.396
x1 = 0.394 | -0.466
x1 = 0.4351 | -0.451
x1 = 0.5566 | -0.418
x1 = 0.6675 | -0.37
x1 = 0.7671 | -0.273
x1 = 0.8761 | -0.13
